One assay relates to NCI-Adr resistant. Description: SRB cytotoxicity, P-glycoprotein expressing cells with and without verapamil. Conditions: for IC50: Homo sapiens, NCI/ADR-RES, 72 h, SRB; for relative resistance, NCI-Adr resistant −/+ verapamil: individual experiments; for RR (relative resistance) NCI-Adr resistant −/+ verapamil: ratio of mean IC50. The assay is classed as cell-based. As to the method:
In these experiments, the P-glycoprotein expressing NCI-Adr resistant subline (Vickers et al., 1989. Mol Endocrinology 3 (1):157-164) was used. […] Briefly, cells were plated in 96 well dishes 24 hours prior to compound addition. Where noted, they were exposed to verapamil for 4 hours prior to compound addition and then throughout the treatment period (72 hours). The assay was terminated with the addition of cold TCA to a final concentration of 10% and the plates were incubated for one hour at 4° C. The plates were then washed 5 times with water and 100 μl of a Sulforhodamine B solution (4%) was added to each well. The plate was then incubated for 10 minutes at room temperature before removal of unbound dye by washing with 1% acetic acid.

Another assay deals with cells. Description: Apoptosis detection (TUNEL staining, PARP cleavage). Conditions: 72 hours at 5× of the IC50 concentration. Format: cell-based. As to the method: In addition, PARP cleavage was also observed. Similarly, cells incubated with B16 are 90% TUNEL positive. Such assays can be used for apoptosis detection in any cells in contact with the subject compounds.
The next assay has as its target T1, MKK6 (Homo sapiens, UniProt P52564).
T1 construct: purchased Upstate 14-303
T1 sequence (P52564 1-334): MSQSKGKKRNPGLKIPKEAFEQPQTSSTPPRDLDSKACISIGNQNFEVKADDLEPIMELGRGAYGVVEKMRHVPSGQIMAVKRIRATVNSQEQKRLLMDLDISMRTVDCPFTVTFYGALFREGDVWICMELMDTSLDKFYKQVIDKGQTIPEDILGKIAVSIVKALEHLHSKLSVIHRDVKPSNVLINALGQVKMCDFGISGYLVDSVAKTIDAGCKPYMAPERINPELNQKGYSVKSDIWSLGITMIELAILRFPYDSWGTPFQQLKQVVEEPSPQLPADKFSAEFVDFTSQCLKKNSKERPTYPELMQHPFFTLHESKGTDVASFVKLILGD
Nature of the assay: MKK6 kinase assay. Format: biochemical. As to the method: • 1. Reaction Buffer (RB): 50 mM Tris-HCl, pH 7.5, 0.1 mM EGTA, 0.1% 2-mercaptoethanol, 0.1 mM sodium orthovanadate, 10 mM MgAc. • 2. Magnesium/ATP Cocktail (Catalog #20-113): 500 μM cold ATP and 75 mM magnesium chloride in 20 mM MOPS, pH 7.2, 25 mM β-glycerol phosphate, 5 mM EGTA, 1 mM sodium orthovanadate, 1 mM dithiothreitol. • 3. MKK6/SKK3, active: Dilute to 10 ng/μl with Reaction Buffer containing 0.03% Brij-35. Use 5 μl (50 ng) per assay point. • 4. p38a/SAPK2a, unactive (Catalog #14-252): Use 4 μl per assay point. • 5. Myelin Basic Protein (MBP, Catalog #13-104): Prepare a 2 mg/ml stock solution in 20 mM MOPS, pH 7.2, 25 mM β-glycerol phosphate, 5 mM EGTA, 1 mM sodium orthovanadate, 1 mM dithiothreitol. Use 10 μl per assay point. • 6. [γ-^32P]ATP: Stock 1 mCi/100 μl (3000 Ci/mmol, obtained from Perkin Elmer, Catalog #BLU002A). Make 10 μl aliquots (100 μCi/vial). Before starting the assay, dilute the Magnesium/ATP Cocktail 1:1 with sterile, distilled water. Then dilute an aliquot of [γ-^32P]ATP to 1 μCi/μl with 90 μl of the diluted Magnesium/ATP Cocktail. […]
• 1. On ice, add 1 μl RB to a microcentrifuge tube. • 2. Add 4 μl (2 μg) p38α/SAPK2a, unactive. • 3. Add 10 μl of Magnesium/ATP Cocktail. • 4. Add 5 μl (50 ng) MKK6/SKK3, active. • 5. Incubate for 30 minutes shaking at 30° C. • 6. Place on ice and proceed to Stage Two.
• 1. Remove 10 μL of the mixture prepared in Stage One and add to a new microcentrifuge tube. • 2. Add 20 μl of RB. • 3. Add 10 μl of MBP. • 4. Add 10 μl of the diluted [γ-^32P] ATP mixture (1 μCi/μl). • 5. Incubate for 15 minutes shaking at 30° C. • 6. Spot 40 μl on a 2 cm×2 cm P81 paper. • 7. Wash assay squares three times with 0.75% phosphoric acid for 5 minutes per wash. • 8. Wash assay squares once with acetone for five minutes. • 9. Transfer the assay squares to a scintillation vial and add 5 ml scintillation cocktail. • 10. Read in scintillation counter. Compare cpm of enzyme samples to cpm of control samples that contain no active enzyme (background control).

Setting [1] is: kinase panel, 10 μM ATP, read-out: MAPK 6 / MKK6 IC50.
[2] abbreviates: read-out: MAP2K6 Inhibition (IC50).

These results are taken from patent publication US20080146555A1, “Uses of Kinase Inhibitors and Compositions Thereof” (GPC Biotech, Inc, priority 2004, published 2008).

Structures can show the parent of a compound that is named as a salt. Where two headings read alike, the source gives them in different places.

In the case of `COCCN1CCN(Cc2ccc(-c3n[nH]c4c3C(=O)c3c(NC(=O)NN5CCOCC5)cccc3-4)cc2)CC1` [Compound B16, N-[3-(4-{[4-(2-methoxyethyl)piperazinyl]methyl}phenyl)-4-oxoindeno[2,3-d]pyrazol-5-yl](morpholin-4-ylamino)carboxamide dihydrochloride], the IC50 in the assay on NCI-Adr resistant (verapamil 12.5 μg/ml) was 80 nM; in the assay on NCI-Adr resistant (without verapamil), 1870 nM; on MKK6 (setting [1]), < 100 nM; on MKK6 (setting [2]) it was < 100 nM. Besides, the “relative resistance, NCI-Adr resistant −/+ verapamil” value with NCI-Adr resistant is reported as “about 25 fold”. Further, the “RR (relative resistance) NCI-Adr resistant −/+ verapamil” value in the assay with NCI-Adr resistant amounted to 23.4. This compound gave a TUNEL positive cells with cells of 90%.

Regarding `CC(C)N1CCN(C(=O)COc2ccc(-c3n[nH]c4c3C(=O)c3c(NC(=O)NN5CCOCC5)cccc3-4)cc2)CC1` [Compound A37], the IC50 was 135 nM in the assay with NCI-Adr resistant (verapamil 12.5 μg/ml), 3430 nM in the assay on NCI-Adr resistant (without verapamil), 10 to 100 nM at MKK6 (setting [1]) and < 500 nM on MKK6 (setting [2]). For the same compound, the “relative resistance, NCI-Adr resistant −/+ verapamil” value in the assay with NCI-Adr resistant was “about 25 fold”. Also, in the assay on NCI-Adr resistant, the “RR (relative resistance) NCI-Adr resistant −/+ verapamil” value turned out to be 25.4. In addition, the PARP cleavage result with cells is “observed”. In addition, in the assay on cells, the TUNEL positive cells entry is “about 60%”.
